Measured values reported in EP2664616A1, “Hydantoin and thiohydantoin derivatives as antiviral drugs” (priority 2012, dated 2013).

What follows are compounds tested on HCV replicon Luc Neo ET (assay: HCV replication inhibition assay (replicon assay, luciferase reporter)). Settings: Hepatitis C virus; Huh-7 cell lines containing HCV replicon Luc Neo ET; 72 hours with compound; 1 % DMSO; firefly luciferase reporter; concentration that produces 50 % of replication inhibition; read-out: EC50 Replicon LucneoET.
Format: cell-based
Protocol: The compounds according to the present invention were tested for their ability to inhibit HCV replication as follows:
Huh-7 cell lines containing HCV replicon Luc Neo ET (Reblikon) were maintained in DMEM supplemented with 10% SVF, 2 mM glutamine, and 1 X NEAA, 100 U / ml penicillin, and 100 µg / ml streptomycine. Cells were maintained in medium supplemented with 0.5 mg/ml G418, at 37°C and 5% CO2 in a humidified atmosphere. Cells were dissociated at sub confluence with trypsin EDTA 1X.
Replicon Luc Neo ET is bicistronic expression constructs (Lohmann et al, 1999, Science 285, 110-113). In brief, the structural genes of the HCV genome were replaced by heterologous sequences; the gene encoding the neomycin phosphotransferase (NPT) and the internal ribosome entry site (IRES) of the encephalomyocarditis virus (EMCV). The bicistronic construct is therefore composed of the following elements: HCV-IRES nucleotides 1-389 for Luc Neo ET, the NPT gene, the EMCV-IRES directing translation of downstream HCV sequences from NS2 or NS3 up to the authentic 3' end of the genome. HCV Polyprotein of Luc Neo ET replicon harbours the cell culture adaptive mutations E1202G, T1280I, K1846T. G418-resistance is only possible with cells containing high amounts of replicon.
Cells were dissociated the day before addition of compounds and seeded in 96 well-plates at a final concentration of 27 777.77 cells.ml^-1.cm^-2 in 90µl final volume of culture medium per well and were maintained at 37°C and 5% CO2 in a humidified atmosphere for 24 hours. 10 µl of compounds to be tested were added 24 hours after seeding. Final concentration of DMSO was 1 %. Cells were incubated in the presence of compounds for 72 hours after which expression of firefly luciferase reporter gene was quantified. Briefly, culture medium was removed and cells were lysed by addition of 100 µl of lysis buffer containing 125 mM Tris Phosphate ph 7.8, 10 mM EDTA, 5 mM DTT, 50 % glycerol and 5 % Triton. Plates were vortexed 10 min at 1300 rpm. 100µl of luciferin solution 1X were added to each well. Luciferin solution contained 40 mM Tris Phosphate ph 7.8, 0.2 mM EDTA, 67 mM DTT, 2.14 mM MgCl2, 5.4 mM MgSO4, 4.7 x 10^-4 M luciferin, 5.3 x 10^-4 M ATP and 2.7 x 10^-4 M Acetyl co enzyme A. Luminescence was immediately measured with Berthold Microlumat Plus LB 96V luminometer with an integration of 1 sec. Inhibition was calculated using the formula: % inhibition = 1-[(RLUsample-RLUbackground)/(RLUsignal-RLUbackground)].
The Table 1 below illustrates data on the biological activity of compounds of the present invention. Results are expressed as EC50 which is the concentration that produces 50 % of replication inhibition. Table 1. HCV replication inhibition assay
`COc1ccc(CCN2C(=S)N(c3ccc(F)cc3)C(=O)C2CC(=O)Nc2cnc(OC)nc2)cc1` (centres unmarked) [Example 82, 2-[1-(4-fluorophenyl)-3-[2-(4-methoxyphenyl)ethyl]-5-oxo-2-sulfanylideneimidazolidin-4-yl]-N-(2-methoxypyrimidin-5-yl)acetamide] was tested, and the EC50 was < 5000 nM.
With `CN(C)c1ccc(CCN2C(=O)N(c3ccc(F)cc3)C(=O)C2CC(=O)Nc2ccc(N(C)C)cc2)cc1` (centres unmarked) [Example 49, N-[4-(dimethylamino)phenyl]-2-(3-{2-[4-(dimethylamino)phenyl]ethyl}-1-(4-fluorophenyl)-2,5-dioxoimidazolidin-4-yl)acetamide] the EC50 was < 500 nM.
`COc1ccc(NC(=O)CC2C(=O)N(c3ccc(F)cc3)C(=S)N2CCc2ccc(Cl)cc2)nc1` (centres unmarked) [Example 66, 2-{3-[2-(4-chlorophenyl)ethyl]-1-(4-fluorophenyl)-5-oxo-2-sulfanylideneimidazolidin-4-yl}-N-(5-methoxypyridin-2-yl)acetamide] was tested, and the EC50 was < 500 nM.
`COCCOc1ccc(NC(=O)CC2C(=O)N(c3ccc(F)cc3)C(=S)N2CCc2ccc(OC)cc2)cc1` (centres unmarked) [Example 53, 2-[1-(4-fluorophenyl)-3-[2-(4-methoxyphenyl)ethyl]-5-oxo-2-sulfanylideneimidazolidin-4-yl]-N-[4-(2-methoxyethoxy)phenyl]acetamide] was tested, and the EC50 was < 500 nM.
With `CN(C)c1ccc(NC(=O)CC2C(=O)N(c3ccc(F)cc3)C(=O)N2CCc2cccs2)cc1` (centres unmarked) [Example 45, N-[4-(dimethylamino)phenyl]-2-[1-(4-fluorophenyl)-2,5-dioxo-3-[2-(thiophen-2-yl)ethyl]imidazolidin-4-yl]acetamide] the EC50 was < 5000 nM.
For `COc1ncc(NC(=O)CC2C(=O)N(c3ccc(F)cc3)C(=O)N2CCc2ccc(N(C)C)cc2)cn1` (centres unmarked) [Example 78, 2-(3-{2-[4-(dimethylamino)phenyl]ethyl}-1-(4-fluorophenyl)-2,5-dioxoimidazolidin-4-yl)-N-(2-methoxypyrimidin-5-yl)acetamide], the EC50 was < 30000 nM.
With `COc1ccc(CCN2C(=S)N(c3ccc(F)cc3)C(=O)C2CC(=O)Nc2ccc(OC)cc2F)cc1` (centres unmarked) [Example 85, N-(2-fluoro-4-methoxyphenyl)-2-[1-(4-fluorophenyl)-3-[2-(4-methoxyphenyl)ethyl]-5-oxo-2-sulfanylideneimidazolidin-4-yl]acetamide] the EC50 was < 500 nM.
For `COc1ccc(NC(=O)CC2C(=O)N(c3ccccc3)C(=S)N2CCc2ccc(Cl)cc2)nc1` (centres unmarked) [Example 61, 2-{3-[2-(4-chlorophenyl)ethyl]-5-oxo-1-phenyl-2-sulfanylideneimidazolidin-4-yl}-N-(5-methoxypyridin-2-yl)acetamide], the EC50 was < 500 nM.
For `COc1ccc(CCN2C(=O)N(c3ccc(F)cc3)C(=O)C2CC(=O)Nc2ccc(OC)cn2)cc1` (centres unmarked) [Example 72, 2-[1-(4-fluorophenyl)-3-[2-(4-methoxyphenyl)ethyl]-2,5-dioxoimidazolidin-4-yl]-N-(5-methoxypyridin-2-yl)acetamide], the EC50 was < 5000 nM.
`COc1ccc(CCN2C(=S)N(c3ccc(F)cc3)C(=O)C2CC(=O)Nc2ncc(OC)cn2)cc1` (centres unmarked) [Example 84, 2-[1-(4-fluorophenyl)-3-[2-(4-methoxyphenyl)ethyl]-5-oxo-2-sulfanylideneimidazolidin-4-yl]-N-(5-methoxypyrimidin-2-yl)acetamide] was tested, and the EC50 was < 500 nM.
With `COc1ccc(NC(=O)CC2C(=O)N(c3ccc(F)cc3)C(=S)N2CCc2ccc(N(C)C)cc2)cc1` (centres unmarked) [Example 47, 2-(3-{2-[4-(dimethylamino)phenyl]ethyl}-1-(4-fluorophenyl)-5-oxo-2-sulfanylideneimidazolidin-4-yl)-N-(4-methoxyphenyl)acetamide] the EC50 was < 500 nM.
In the case of `COc1ccc(CCN2C(=S)N(c3ccccc3)C(=O)C2CC(=O)Nc2ccc(N(C)C)cc2)cc1` (centres unmarked) [Example 51, N-[4-(dimethylamino)phenyl]-2-{3-[2-(4-methoxyphenyl)ethyl]-5-oxo-1-phenyl-2-sulfanylideneimidazolidin-4-yl}acetamide], the EC50 is reported as < 500 nM.
With `COc1ccc(CCN2C(=S)N(c3ccc(F)cc3)C(=O)C2CC(=O)Nc2ccc(OC)cn2)cc1` (centres unmarked) [Example 83, 2-[1-(4-fluorophenyl)-3-[2-(4-methoxyphenyl)ethyl]-5-oxo-2-sulfanylideneimidazolidin-4-yl]-N-(5-methoxypyridin-2-yl)acetamide] the EC50 was < 500 nM.
With `COc1ccc(CCN2C(=S)N(c3ccccc3)C(=O)C2CC(=O)Nc2ccc(C)nn2)cc1` (centres unmarked) [Example 68, 2-{3-[2-(4-methoxyphenyl)ethyl]-5-oxo-1-phenyl-2-sulfanylideneimidazolidin-4-yl}-N-(6-methylpyridazin-3-yl)acetamide] the EC50 was < 30000 nM.
`COc1ccc(CCN2C(=S)N(c3ccc(F)cc3)C(=O)C2CC(=O)Nc2ccc(O)cc2)cc1` (centres unmarked) [Example 91, 2-[1-(4-fluorophenyl)-3-[2-(4-methoxyphenyl)ethyl]-5-oxo-2-sulfanylideneimidazolidin-4-yl]-N-(4-hydroxyphenyl)acetamide] was tested, and the EC50 was < 500 nM.
With `COc1ccc(CCN2C(=S)N(c3ccccc3)C(=O)/C2=C\C(=O)Nc2ccc(N(C)C)cc2)cc1` [Example 90, N-[4-(dimethylamino)phenyl]-2-[(4E)-3-[2-(4-methoxyphenyl)ethyl]-5-oxo-1-phenyl-2-sulfanylideneimidazolidin-4-ylidene]acetamide] the EC50 was < 500 nM.

Same assay, conditions: Huh-7 cell lines containing HCV replicon Luc Neo ET; 72 hours with compound; 1 % DMSO; firefly luciferase reporter; concentration that produces 50 % of replication inhibition
`COc1ccc(/C=C\N2C(=S)N(c3ccc(F)cc3)C(=O)C2CC(=O)Nc2ccc(OC)cn2)cc1` (centres unmarked) [Example 89, 2-[1-(4-Fluorophenyl)-3-[(Z)-2-(4-methoxyphenyl)ethenyl]-5-oxo-2-sulfanylideneimidazolidin-4-yl]-N-(5-methoxypyridin-2-yl)acetamide] was tested, and the “EC50 Replicon LucneoET” value was “Non Active”.

Same assay, conditions: Huh-7 cell lines containing HCV replicon Luc Neo ET; 72 hours with compound; 1 % DMSO; firefly luciferase reporter; concentration that produces 50 % of replication inhibition; read-out: EC50 Replicon LucneoET
With `CCCOc1ccc(NC(=O)CC2C(=O)N(c3ccc(F)cc3)C(=S)N2CCCN2CCN(CC)CC2)cc1` (centres unmarked) [Example 31] the EC50 was < 30000 nM.
In the case of `COc1ccc(CCN2C(=S)N(c3ccccc3)C(=O)C2CC(=O)Nc2ccc(OC)cc2)cc1` (centres unmarked) [Example 3], the EC50 is reported as < 500 nM.
For “2-{3-[2-(4-chlorophenyl)ethyl]-1-(4-fluorophenyl)-5-oxo-2-sulfanylideneimidazolidin-4-yl}-N-(5-methoxypyridin-2-yl)acetamide [Example 67]”, the EC50 was < 5000 nM.
`COc1ccc2[nH]cc(CCN3C(=S)N(c4ccccc4)C(=O)C3CC(=O)Nc3ccccc3)c2c1` (centres unmarked) [Example 17] was tested, and the EC50 was < 5000 nM.
With `O=C(CC1C(=O)N(c2ccccc2)C(=S)N1CCc1ccc(Cl)cc1)Nc1ccccc1` (centres unmarked) [Example 11] the EC50 was < 5000 nM.
With `COCCCN1C(=S)N(c2ccc(F)cc2)C(=O)C1CC(=O)Nc1ccc(OC)cc1` (centres unmarked) [Example 27] the EC50 was < 30000 nM.
With `COc1ccc(NC(=O)CC2C(=O)N(c3ccc(C)cc3)C(=S)N2CCc2ccccc2)cc1` (centres unmarked) [Example 26] the EC50 was < 5000 nM.
`COc1ccc(NC(=O)CC2C(=O)N(c3ccccc3)C(=S)N2CCc2ccc(Cl)cc2)cc1` (centres unmarked) [Example 5] was tested, and the EC50 was < 500 nM.
`CCCOc1ccc(NC(=O)CC2C(=O)N(c3ccccc3)C(=S)N2CCCN2CCN(Cc3ccccc3)CC2)cc1` (centres unmarked) [Example 10] was tested, and the EC50 was < 5000 nM.
“N-[4-(dimethylamino)phenyl]-2-[1-(4-fluorophenyl)-4-hydroxy-3-[2-(4-methoxyphenyl)ethyl]-5-oxo-2-sulfanylideneimidazolidin-4-yl]acetamide [Example 77]” was tested, and the EC50 was < 500 nM.
With `COc1ccc(NC(=O)CC2C(=O)N(Cc3ccccc3)C(=S)N2CCc2ccc(Cl)cc2)cc1` (centres unmarked) [Example 32] the EC50 was < 30000 nM.
`COc1ccc(NC(=O)CC2C(=O)N(c3ccc(F)cc3)C(=S)N2CCCN2CCN(c3ccccc3)CC2)cc1` (centres unmarked) [Example 14] was tested, and the EC50 was < 500 nM.
